Results from patent publication US12077503B2, “Substituted cyclic amides and their use as herbicides” (FMC CORPORATION, priority 2015, dated 2024).

Legend:
Format in all cases: in vivo
[1] = tested on: barnyardgrass (Echinochloa crus-galli); experiment: Test G Pre-Emergence Protocol; conditions: Echinochloa crus-galli, pre-emergence, 312 h, evaluated after 13 days; for pest or weed control at 15.625 g/ha: 15.625 g ai/ha, read-out: Barnyard grass damage rating (100=total damage to plant; 0=no damage to plant); for pest or weed control at 62.5 g/ha: 62.5 g ai/ha, 100=total damage to plant, 0=no damage to plant, read-out: plant damage rating, Barnyardgrass; for pest or weed control at 250 g/ha: 250 g ai/ha, read-out: Barnyardgrass damage rating (100=total damage to plant; 0=no damage to plant)
Summary of the method: (§1)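 Pots of seeds in standard soil were grown for one day in a glasshouse (24/16 °C day/night, 14 h light, 65% humidity), then sprayed with compound in acetone/water 50:50 with 0.5% Tween 20 at 15.625, 62.5 or 250 g/ha. Damage was scored after 13 days on a 0 (none) to 100 (total) scale.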

corn (Zea mays) [2] = experiment: Test G Pre-Emergence Protocol; conditions: Zea mays, pre-emergence, 312 h, evaluated after 13 days; for plant injury at 15.625 g/ha: 15.625 g ai/ha; for plant injury at 15.625 g/ha / plant injury at 250 g/ha: read-out: Corn damage rating (100=total damage to plant; 0=no damage to plant); for plant injury at 62.5 g/ha: 62.5 g ai/ha, 100=total damage to plant, 0=no damage to plant, read-out: plant damage rating, Corn; for plant injury at 250 g/ha: 250 g ai/ha
Summary of the method: as §1

[3] = tested on: giant foxtail (Setaria faberi); experiment: Test G Pre-Emergence Protocol; conditions: Setaria faberi, pre-emergence, 312 h, evaluated after 13 days; for pest or weed control at 15.625 g/ha: 15.625 g ai/ha; for pest or weed control at 15.625 g/ha / pest or weed control at 250 g/ha: read-out: Foxtail, Giant damage rating (100=total damage to plant; 0=no damage to plant); for pest or weed control at 62.5 g/ha: 62.5 g ai/ha, 100=total damage to plant, 0=no damage to plant, read-out: plant damage rating, Foxtail, Giant; for pest or weed control at 250 g/ha: 250 g ai/ha
Summary of the method: as §1

[4] = tested on: ivy-leaved morning glory (Ipomoea hederacea); experiment: Test G Pre-Emergence Protocol; conditions: Ipomoea, pre-emergence, 312 h, evaluated after 13 days; for pest or weed control at 15.625 g/ha: 15.625 g ai/ha, read-out: Morning-glory, Ivy-leaved damage rating (100=total damage to plant; 0=no damage to plant); for pest or weed control at 62.5 g/ha: 62.5 g ai/ha, 100=total damage to plant, 0=no damage to plant, read-out: plant damage rating, Morningglory, Ivy-leaved; for pest or weed control at 250 g/ha: 250 g ai/ha, read-out: Morningglory, Ivy-leaved damage rating (100=total damage to plant; 0=no damage to plant)
Summary of the method: as §1

[5] = tested on: redroot pigweed (Amaranthus retroflexus); experiment: Test G Pre-Emergence Protocol; conditions: Amaranthus retroflexus, pre-emergence, 312 h, evaluated after 13 days; for pest or weed control at 15.625 g/ha: 15.625 g ai/ha; for pest or weed control at 15.625 g/ha / pest or weed control at 250 g/ha: read-out: Pigweed, Redroot damage rating (100=total damage to plant; 0=no damage to plant); for pest or weed control at 62.5 g/ha: 62.5 g ai/ha, 100=total damage to plant, 0=no damage to plant, read-out: plant damage rating, Pigweed, Redroot; for pest or weed control at 250 g/ha: 250 g ai/ha
Summary of the method: as §1

[6] = tested on: velvetleaf (Abutilon theophrasti); experiment: Test G Pre-Emergence Protocol; conditions: Abutilon theophrasti, pre-emergence, 312 h, evaluated after 13 days; for pest or weed control at 15.625 g/ha: 15.625 g ai/ha; for pest or weed control at 15.625 g/ha / pest or weed control at 250 g/ha: read-out: Velvetleaf damage rating (100=total damage to plant; 0=no damage to plant); for pest or weed control at 62.5 g/ha: 62.5 g ai/ha, 100=total damage to plant, 0=no damage to plant, read-out: plant damage rating, Velvetleaf; for pest or weed control at 250 g/ha: 250 g ai/ha
Summary of the method: as §1

[7] = tested on: barnyardgrass (Echinochloa crus-galli); experiment: Test G Post-Emergence Protocol; conditions: Echinochloa crus-galli, post-emergence, 312 h; for pest or weed control at 15.625 g/ha: 15.625 g ai/ha, evaluated after 13 days (100=total damage to plant; 0=no damage to plant), read-out: Barnyardgrass damage rating; for pest or weed control at 62.5 g/ha: 62.5 g ai/ha, read-out: Barnyardgrass damage rating (100=total damage to plant; 0=no damage to plant); for pest or weed control at 62.5 g/ha / pest or weed control at 250 g/ha: evaluated after 13 days; for pest or weed control at 250 g/ha: 250 g ai/ha, read-out: damage to plant, Barnyardgrass (100=total damage to plant; 0=no damage to plant)
Summary of the method: (§2)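 Sow in soil; grow 8 d (24/16 °C, 14 h light, 65% humidity); spray 15.625/62.5/250 g/ha in acetone:water 50:50 + 0.5% Tween 20; grow on, water twice daily; score damage 0–100 at 13 d.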

corn (Zea mays) [8] = experiment: Test G Post-Emergence Protocol; conditions: Zea mays, post-emergence, 312 h; for plant injury at 15.625 g/ha: 15.625 g ai/ha, evaluated after 13 days (100=total damage to plant; 0=no damage to plant), read-out: Corn damage rating; for plant injury at 62.5 g/ha: 62.5 g ai/ha, read-out: Corn damage rating (100=total damage to plant; 0=no damage to plant); for plant injury at 62.5 g/ha / plant injury at 250 g/ha: evaluated after 13 days; for plant injury at 250 g/ha: 250 g ai/ha, read-out: damage to plant, Corn (100=total damage to plant; 0=no damage to plant)
Summary of the method: as §2

[9] = tested on: giant foxtail (Setaria faberi); experiment: Test G Post-Emergence Protocol; conditions: Setaria faberi, post-emergence, 312 h; for pest or weed control at 15.625 g/ha: 15.625 g ai/ha, evaluated after 13 days (100=total damage to plant; 0=no damage to plant), read-out: Foxtail, Giant damage rating; for pest or weed control at 62.5 g/ha: 62.5 g ai/ha, read-out: Foxtail, Giant damage rating (100=total damage to plant; 0=no damage to plant); for pest or weed control at 62.5 g/ha / pest or weed control at 250 g/ha: evaluated after 13 days; for pest or weed control at 250 g/ha: 250 g ai/ha, read-out: damage to plant, Foxtail, Giant (100=total damage to plant; 0=no damage to plant)
Summary of the method: as §2

[10] = tested on: ivy-leaved morning glory (Ipomoea hederacea); experiment: Test G Post-Emergence Protocol; conditions: Ipomoea, post-emergence, 312 h; for pest or weed control at 15.625 g/ha: 15.625 g ai/ha, evaluated after 13 days (100=total damage to plant; 0=no damage to plant), read-out: Morningglory, Ivy-leaved damage rating; for pest or weed control at 62.5 g/ha: 62.5 g ai/ha, read-out: Morningglory, Ivy-leaved damage rating (100=total damage to plant; 0=no damage to plant); for pest or weed control at 62.5 g/ha / pest or weed control at 250 g/ha: evaluated after 13 days; for pest or weed control at 250 g/ha: 250 g ai/ha, read-out: damage to plant, Morningglory, Ivy-leaved (100=total damage to plant; 0=no damage to plant)
Summary of the method: as §2

[11] = tested on: redroot pigweed (Amaranthus retroflexus); experiment: Test G Post-Emergence Protocol; conditions: Amaranthus retroflexus, post-emergence, 312 h; for pest or weed control at 15.625 g/ha: 15.625 g ai/ha, evaluated after 13 days (100=total damage to plant; 0=no damage to plant), read-out: Pigweed, Redroot damage rating; for pest or weed control at 62.5 g/ha: 62.5 g ai/ha, read-out: Pigweed, Redroot damage rating (100=total damage to plant; 0=no damage to plant); for pest or weed control at 62.5 g/ha / pest or weed control at 250 g/ha: evaluated after 13 days; for pest or weed control at 250 g/ha: 250 g ai/ha, read-out: damage to plant, Pigweed, Redroot (100=total damage to plant; 0=no damage to plant)
Summary of the method: as §2

[12] = tested on: velvetleaf (Abutilon theophrasti); experiment: Test G Post-Emergence Protocol; conditions: Abutilon theophrasti, post-emergence, 312 h; for pest or weed control at 15.625 g/ha: 15.625 g ai/ha, evaluated after 13 days (100=total damage to plant; 0=no damage to plant), read-out: Velvetleaf damage rating; for pest or weed control at 62.5 g/ha: 62.5 g ai/ha, read-out: Velvetleaf damage rating (100=total damage to plant; 0=no damage to plant); for pest or weed control at 62.5 g/ha / pest or weed control at 250 g/ha: evaluated after 13 days; for pest or weed control at 250 g/ha: 250 g ai/ha, read-out: damage to plant, Velvetleaf (100=total damage to plant; 0=no damage to plant)
Summary of the method: as §2

| Structure (SMILES) | pest or weed control at 15.625 g/ha [1] [%] | pest or weed control at 62.5 g/ha [1] [%] | pest or weed control at 250 g/ha [1] [%] | plant injury at 15.625 g/ha (corn (Zea mays) [2]) [%] | plant injury at 62.5 g/ha (corn (Zea mays) [2]) [%] | plant injury at 250 g/ha (corn (Zea mays) [2]) [%] | pest or weed control at 15.625 g/ha [3] [%] | pest or weed control at 62.5 g/ha [3] [%] | pest or weed control at 250 g/ha [3] [%] | pest or weed control at 15.625 g/ha [4] [%] | pest or weed control at 62.5 g/ha [4] [%] | pest or weed control at 250 g/ha [4] [%] | pest or weed control at 15.625 g/ha [5] [%] | pest or weed control at 62.5 g/ha [5] [%] | pest or weed control at 250 g/ha [5] [%] | pest or weed control at 15.625 g/ha [6] [%] | pest or weed control at 62.5 g/ha [6] [%] | pest or weed control at 250 g/ha [6] [%] | pest or weed control at 15.625 g/ha [7] [%] | pest or weed control at 62.5 g/ha [7] [%] | also measured |
| --- | --- | --- | --- | --- | --- | --- | --- | --- | --- | --- | --- | --- | --- | --- | --- | --- | --- | --- | --- | --- | --- |
| CN1C[C@@H](c2ccc(C(F)(F)F)cc2)[C@H](C(=O)Nc2ccccn2)C1=O (racemic) [Compound 1596] | 0 | 0 | 70 | 0 | 0 | 0 | 0 | 40 | 80 | 0 | 10 | 100 | 0 | 20 | 60 | 0 | 0 | 20 | 0 | 30 | pest or weed control at 250 g/ha [7]: 70%; plant injury at 15.625 g/ha (corn (Zea mays) [8]): 0%; plant injury at 62.5 g/ha (corn (Zea mays) [8]): 0%; plant injury at 250 g/ha (corn (Zea mays) [8]): 10%; pest or weed control at 15.625 g/ha [9]: 0%; pest or weed control at 62.5 g/ha [9]: 60%; pest or weed control at 250 g/ha [9]: 80%; pest or weed control at 15.625 g/ha [10]: 0%; pest or weed control at 62.5 g/ha [10]: 10%; pest or weed control at 250 g/ha [10]: 20%; pest or weed control at 15.625 g/ha [11]: 0%; pest or weed control at 62.5 g/ha [11]: 10%; pest or weed control at 250 g/ha [11]: 40%; pest or weed control at 15.625 g/ha [12]: 0%; pest or weed control at 62.5 g/ha [12]: 0%; pest or weed control at 250 g/ha [12]: 10% |
| Cc1cc(NC(=O)[C@@H]2C(=O)N(C)C[C@H]2c2ccc(C(F)(F)F)cc2)ccn1 (racemic) [Compound 1600] | 0 | 0 | 0 | 0 | 0 | 0 | 0 | 0 | 0 | 0 | 0 | 0 | 0 | 0 | 0 | 0 | 0 | 0 | 0 | 0 | pest or weed control at 250 g/ha [7]: 0%; plant injury at 15.625 g/ha (corn (Zea mays) [8]): 0%; plant injury at 62.5 g/ha (corn (Zea mays) [8]): 0%; plant injury at 250 g/ha (corn (Zea mays) [8]): 0%; pest or weed control at 15.625 g/ha [9]: 0%; pest or weed control at 62.5 g/ha [9]: 0%; pest or weed control at 250 g/ha [9]: 0%; pest or weed control at 15.625 g/ha [10]: 0%; pest or weed control at 62.5 g/ha [10]: 0%; pest or weed control at 250 g/ha [10]: 0%; pest or weed control at 15.625 g/ha [11]: 0%; pest or weed control at 62.5 g/ha [11]: 0%; pest or weed control at 250 g/ha [11]: 0%; pest or weed control at 15.625 g/ha [12]: 0%; pest or weed control at 62.5 g/ha [12]: 0%; pest or weed control at 250 g/ha [12]: 0% |
